From patent US10815276B2, “Cell penetrating peptides and methods of making and using thereof” (Entrada Therapeutics, Inc., priority 2014, dated 2020)
Read-outs that look alike come from different tables or passages of the source. Starred links: 1 amine or outer side, 2 acyl side, 3 side chain; linkers in the order of their positions; H or OH if unused. Positions of bridges follow the written chain, without caps; N, C: chain ends. Non-standard residues stand in square brackets, D forms with d. Residues, ends and D or L forms follow the SMILES beside them. Groups on a side chain read outwards from the residue. Trimesoyl = O=C(c1cc(C(=O)[*:2])cc(C(=O)[*:3])c1)[*:1]; d(pT) = C[C@H](OP(=O)(O)O)[C@@H](N)C(=O)O; Phe(4-F) = N[C@@H](Cc1ccc(F)cc1)C(=O)O; 2Nal = N[C@@H](Cc1ccc2ccccc2c1)C(=O)O; NMeF = CN[C@@H](Cc1ccccc1)C(=O)O; Pip = O=C(O)[C@@H]1CCCCN1; Dap = NC[C@H](N)C(=O)O; Sar = CNCC(=O)O

Assays:
HeLa cells [1] = conditions: MTT
Excerpt: The effect of peptide 37 on the growth of HeLa cells was examined by using the MTT cell viability assay.

HeLa cells [2] = assay: Western blot of PML protein level; assay type: cell-based, human; conditions: 0.2-5 μM
Method: FIGS. 38A, 38B, 38C, and 38D display cellular activity of peptide 37. (FIG. 38A) Cellular uptake of peptides 1, 37, and 46 (5 μM) by HeLa cells as analyzed by flow cytometry. MFI, mean fluorescence intensity; none, untreated cells (no peptide). (FIG. 38B) Anti-proliferative effect of peptides 37, 46, and 47 on HeLa cells as measured by MTT assay. (FIG. 38C) Western blots showing the effect of peptides 1, 37 and 47 on the protein level of PML in HeLa cells. β-Actin was used as loading control. (FIG. 38D) Quantification of western blot results from (FIG. 38C). Data reported were after background subtraction and represent the mean±SD from 3 independent experiments.
Finally, to ascertain that Pin1 is the molecular target of peptide 37 in vivo, the intracellular protein level of a well-established Pin1 substrate, […] (PML), was examined by western blot analysis. Pin1 negatively regulates the PML level in a phosphorylation-dependent manner and inhibition of Pin1 activity is expected to stabilize PML and increase its intracellular level. […] The effect was already significant at 0.2 μM inhibitor (1.8-fold increase in the PML level) and plateaued at ˜1 μM (3.3-fold increase). Again, bicyclic peptide 47 had no effect under the same conditions, while peptide 1 (the positive control, at 5 μM) increased the PML level by 3.1-fold.

Pin1 [3] = target: T1, Pin1 (Homo sapiens, UniProt Q13526, S16A/Y23A); assay: Pin1 binding by FA (FITC-labeled peptides)
T1 construct: The full-length human S16A/Y23A mutant Pin1 was expressed and purified from E. coli; made in house

Jurkat cells = assay: In cellulo fluorimetric caspase assay; assay type: cell-based; conditions: staurosporin-treated cells, 5 μM peptide, 10-h period
Method: 100 μL of Jurkat cell suspension (5×10^5 cells/mL) was seeded in 96-well plate one hour prior to the experiment. Ten μL of staurosporine stock solution (10 μM) was added into half of the wells to induce apoptosis, while 10 μL of media was added to the other wells. After 1 h incubation, caspase-3 fluorogenic substrates were added to the cells to a final concentration of 5 μM. The fluorescence of the released coumarin was measured on the Spectramax M5 plate reader with excitation and emission wavelengths at 360 and 440 nm at various times points (0-6 h). The fluorescence unit (FU) increases between induced and uninduced cells were plotted against the time to present caspase-3 activities measured using various fluorogenic substrates in living cell in real-time. Three independent sets of experiments, each performed in triplicate, were conducted.
Jurkat cells were pretreated with the kinase inhibitor staurosporin to induce caspase activities and thus apoptosis (Belmokhtar, C A et al. Biochem. J. 1996, 315, 21). These cells were then incubated with peptides 3-7 and the amount of Amc released was monitored at various time points (0-10 h). […] Peptide 4 produced the fastest fluorescence increase, reaching 459 fluorescence units (FU), followed by peptides 7 and 6. […] This slow rate of AMC release can be attributed to hydrolysis by other intracellular proteases and peptidases. Consistent with this interpretation, pretreatment of Jurkat cells with a pancaspase inhibitor Z-VAD(OMe)-FMK (Slee, E A et al. Biochem J. 1996, 315, 21) followed by incubation with peptide 4 released AMC at a rate that was similar to that of peptide 5 alone. One explanation of the above observations is that both peptides 4 and 5 can enter the cell interior efficiently, but only peptide 4 can be converted into the linear caspase substrate inside the cells.

[4] = Serum stability test (25% human serum); assay type: in vitro ADME; conditions: 37° C.
Method: The stability tests were carried by modifying a previously reported procedure (Nguyen, L T et al. […] At various time points (0-6 h), 200-μL aliquots were withdrawn and mixed with 50 μl of 15% trichloroacetic acid and incubated at 4° C. overnight. The final mixture was centrifuged at 15,000 rpm for 10 min in a microcentrifuge, and the supernatant was analyzed by reversed-phase HPLC equipped with a C18 column (Waters). The amount of remaining peptide (%) was determined by integrating the area underneath the peptide peak (monitored at 214 nm) and compared with that of the control reaction (no serum).

HeLa cells [5] = assay: MTT proliferation assay with Pin1 inhibitors; assay type: cell-based, human; conditions: MTT
Method: HeLa cells (100 μL/each well, 5×10^4 cells/mL) were seeded in a 96-well culture plate and allowed to grow overnight in DMEM supplemented with 10% FBS. […] After that, 10 μL of a MTT stock solution (5 mg/mL) was added into each well. The plate was incubated at 37° C. for 4 h and 100 μL of SDS-HCl solubilizing solution was added into each well, followed by thorough mixing. The plate was incubated at 37° C. overnight and the absorbance of the formazan product was measured at 570 nm on a Molecular Devices Spectramax M5 plate reader. Each experiment was performed in triplicates and the cells untreated with peptide were used as control.

Pin1 [6] = target: T1, Pin1; assay: Fluorescence anisotropy binding to Pin1; conditions: FITC-labeled peptide, FA analysis
Method: The gene coding for the catalytic domain of PTP1B (amino acids 1-321) was amplified by the polymerase chain reaction using PTP1B cDNA as template and oligonucleotides 5′-[…]-3′ and 5′-[…]-3′ as primers. […] Expression and purification of the ybbR-tagged PTP1B were carried out as previously described (Ren, L et al. Biochemistry 2011, 50, 2339-2356). […] The reaction mixture was passed through a G-25 fast-desalting column equilibrated in 30 mM HEPES, pH 7.4, 150 mM NaCl to remove any free dye molecules. The full-length human S16A/Y23A mutant Pin1 was expressed and purified from E. coli as previously described (Liu, T et al. J. Med. Chem. 2010, 53, 2494-2501).
FA experiments were carried out by incubating 100 nM FITC-labeled peptide with varying concentrations of protein in 20 mM HEPES (pH 7.4), 150 mM NaCl, 2 mM magnesium acetate, and 0.1% bovine serum albumin (BSA) for 2 h at room temperature. The FA values were measured on a Molecular Devices Spectramax M5 plate reader, with excitation and emission wavelengths at 485 and 525 nm, respectively. Equilibrium dissociation constants (KD) were determined by plotting the FA values as a function of protein concentration and fitting the curve to the following equation:
[formula] where Y is the FA value at a given protein concentration x, L is the peptide concentration, Qb/Qf is the correction factor for fluorophore-protein interaction, Amax is the maximum FA value when all of the peptides are bound to protein, while Amin is the minimum FA value when all of the peptides are free. FA competition assay was performed by incubating 100 nM FITC-labeled Pin1 inhibitor 5 with 1 μM Pin1, followed by the addition of 0-5 μM unlabeled inhibitor. The FA values were measured similarly on a pate reader. IC50 values were obtained by plotting the FA values against the competitor concentration and curve fitting using the four-parameter dose-response inhibition equation (Prism 6, GraphPad).

HeLa cells [7] = assay: Cellular uptake by flow cytometry; assay type: cell-based, human; conditions: 5 μM FITC-labeled peptide, 2 h
Method: The cellular uptake efficiency of peptide 37, peptide 1, and a previously reported membrane-impermeable monocyclic Pin1 inhibitor (Table 18, peptide 46) was assessed by incubating HeLa cells with the FITC-labeled peptides (5 μM) for 2 h and quantifying the total intracellular fluorescence by flow cytometry analysis. […] By contrast, cells treated with peptides 1 and 37 gave MFI values of 2562 and 8792, respectively. Thus, peptide 37 is internalized by HeLa cells ˜4-fold more efficiently than peptide 1. Presumably, the negative charged phosphate group of peptide 1 interacted electrostatically with the positively charged CPP motif and reduced the cellular uptake efficiency of the latter.

Compound: bicyclo[Tm-(D-Ala-Sar-D-Thr-D-Ala-Nal-Arg-Ala-D-Ala)-Dap-(Phe-Nal-Arg-Arg-Arg-Arg-Dap)]-Lys [Peptide 47]
- Effect on cell growth (HeLa cells [1]): neither peptide 46 nor 47 had any effect
- Effect on the PML level (HeLa cells [2]): no effect
- KD (μM) (Pin1 [3]; FITC-labeled peptide, FA): No

Compound: C[C@@H]1NC(=O)[C@H](CCCNC(=N)N)NC(=O)[C@H](Cc2ccc3ccccc3c2)NC(=O)[C@@H]2CCCCN2C(=O)[C@@H]([C@H](C)O)NC(=O)CNC(=O)[C@H](Cc2ccccc2)N(C)C(=O)c2cc3cc(c2)C(=O)NC[C@H](NC(=O)[C@@H](C)NC1=O)C(=O)N[C@@H](Cc1ccccc1)C(=O)N[C@@H](Cc1ccc2ccccc2c1)C(=O)N[C@@H](CCCNC(=N)N)C(=O)N[C@@H](CCCNC(=N)N)C(=O)N[C@@H](CCCNC(=N)N)C(=O)N[C@@H](CCCNC(=N)N)C(=O)N[C@H](C(=O)N[C@@H](CCCCN)C(N)=O)CNC3=O [Peptide 5, bicyclo[Tm-(Mpa-Gly-D-Thr-Pip-Nal-Arg-Ala-D-Ala)-Dap-(Phe-Nal-Arg-Arg-Arg-Arg-Dap)]-Lys] ([NMeF]G[dT][Pip][2Nal]RA[dA][Dap]F[2Nal]RRRR[Dap]K-NH2; linker N-9-16 via Trimesoyl; C-terminus assumed)
- Fluorescence increase (released Amc) (Jurkat cells): 99 FU

Compound: N=C(N)NCCC[C@H](NC(=O)[C@H](CCCNC(=N)N)NC(=O)[C@H](CCCNC(=N)N)NC(=O)[C@H](CCC(N)=O)NC(=O)[C@H](CCCNC(=N)N)NC(=O)[C@H](CCCNC(=N)N)NC(=O)[C@H](CCCCN)NC(=O)[C@H](CCCCN)NC(=O)[C@H](CCCNC(=N)N)NC(=O)CNC(=O)[C@@H](N)Cc1ccc(O)cc1)C(N)=O [Tat]
- half-life [4]: ~30 min

Compound: C[C@@H]1NC(=O)[C@H](CCCNC(=N)N)NC(=O)[C@H](Cc2ccc3ccccc3c2)NC(=O)[C@@H]2CCCCN2C(=O)[C@@H](CC(=O)O)NC(=O)CN(C)C(=O)[C@@H]2CCCN2C(=O)c2cc3cc(c2)C(=O)NC[C@@H](C(=O)N[C@@H](CCCCN)C(N)=O)NC(=O)[C@H](CCCNC(=N)N)NC(=O)[C@H](CCCNC(=N)N)NC(=O)[C@H](CCCNC(=N)N)NC(=O)[C@H](CCCNC(=N)N)NC(=O)[C@H](Cc2ccc4ccccc4c2)NC(=O)[C@H](Cc2ccccc2)NC(=O)[C@H](CNC3=O)NC1=O [Peptide 9, bicyclo[Tm-(Pro-Sar-D-Asp-Pip-Nal-Arg-Ala)-Dap-(Phe-Nal-Arg-Arg-Arg-Arg-Dap)]-Lys] (P[Sar][dD][Pip][2Nal]RA[Dap]F[2Nal]RRRR[Dap]K-NH2; linker N-8-15 via Trimesoyl; C-terminus assumed)
- Effect on cell growth (HeLa cells [5]): no effect
- KD (Pin1 [6]): abolished Pin1 inhibitory activity

Compound: C[C@@H]1NC(=O)[C@H](CCCNC(=N)N)NC(=O)[C@H](Cc2ccc3ccccc3c2)NC(=O)[C@@H]2CCCCN2C(=O)[C@@H]([C@H](C)O)NC(=O)[C@H](Cc2ccc(F)cc2)NC(=O)[C@@H](Cc2ccccc2)NC(=O)c2cc3cc(c2)C(=O)NC[C@H](NC(=O)[C@@H](C)NC1=O)C(=O)N[C@@H](Cc1ccccc1)C(=O)N[C@@H](Cc1ccc2ccccc2c1)C(=O)N[C@@H](CCCNC(=N)N)C(=O)N[C@@H](CCCNC(=N)N)C(=O)N[C@@H](CCCNC(=N)N)C(=O)N[C@@H](CCCNC(=N)N)C(=O)N[C@H](C(=O)N[C@@H](CCCCN)C(N)=O)CNC3=O [Peptide 4, bicyclo[Tm-(D-Phe-Fpa-D-Thr-Pip-Nal-Arg-Ala-D-Ala)-Dap-(Phe-Nal-Arg-Arg-Arg-Arg-Dap)]-Lys] ([dF][Phe(4-F)][dT][Pip][2Nal]RA[dA][Dap]F[2Nal]RRRR[Dap]K-NH2; linker N-9-16 via Trimesoyl; C-terminus assumed)
- Fluorescence increase (released Amc) (Jurkat cells): 459 FU

Compound: C[C@@H]1NC(=O)[C@H](CCCNC(=N)N)NC(=O)[C@H](Cc2ccc3ccccc3c2)NC(=O)[C@@H]2CCCCN2C(=O)[C@@H](CC(=O)O)NC(=O)CN(C)C(=O)[C@@H]2CCCN2C(=O)c2cc3cc(c2)C(=O)NC[C@H](NC(=O)[C@@H](C)NC1=O)C(=O)N[C@@H](Cc1ccccc1)C(=O)N[C@@H](Cc1ccc2ccccc2c1)C(=O)N[C@@H](CCCNC(=N)N)C(=O)N[C@@H](CCCNC(=N)N)C(=O)N[C@@H](CCCNC(=N)N)C(=O)N[C@@H](CCCNC(=N)N)C(=O)N[C@H](C(=O)N[C@@H](CCCCN)C(N)=O)CNC3=O [Peptide 3, bicyclo[Tm-(Pro-Sar-D-Asp-Pip-Nal-Arg-Ala-D-Ala)-Dap-(Phe-Nal-Arg-Arg-Arg-Arg-Dap)]-Lys] (P[Sar][dD][Pip][2Nal]RA[dA][Dap]F[2Nal]RRRR[Dap]K-NH2; linker N-9-16 via Trimesoyl)
- Fluorescence increase (released Amc) (Jurkat cells): little fluorescence increase

Compound: C[C@H](OP(=O)(O)O)[C@H]1NC(=O)CN(C)C(=O)[C@@H](C)NC(=O)[C@H](CCC(=O)N[C@@H](CCCCN)C(N)=O)NC(=O)[C@H](Cc2ccc(O)cc2)NC(=O)[C@H](Cc2ccc3ccccc3c2)NC(=O)[C@@H]2CCCCN2C1=O [Peptide 46, cyclo(D-Ala-Sar-D-pThr-Pip-Nal-Tyr-Gln)-Lys, reference compound] (cyclo([dA][Sar][d(pT)][Pip][2Nal]YE([Lys-NH2])); ring closure inferred)
- Effect on cell growth (HeLa cells [1]): neither peptide 46 nor 47 had any effect
- Effect on cell growth (HeLa cells [5]): no effect
- Mean fluorescence intensity (MFI) (HeLa cells [7]): 193
- Kd (Pin1 [3]): 240 ± 40 nM
